How the values were obtained:
[1] = Study A16 Part 2: PK of a single dose of 1200 mg fospropofol disodium following a high-fat meal; assay type: in vivo, human
Method: Part 2 of Study A16 was a double-blind, placebo-controlled, single-close pilot study to investigate the PK, safety, and tolerability of 1200 mg of fospropofol disodium administered to healthy adult men and women following a high-fat meal.
Subjects were healthy adults (age 18-55 years inclusive, BMI 18-29.9 kg/m^2). A separate cohort of 15 subjects was randomly assigned to receive a single oral dose of either fospropofol disodium (n=12) or matching placebo (n=3) within 30 minutes (±1 minute) after the start of a standardized high-fat meal.
Subjects were admitted to the clinical unit for an overnight fast (Day −1), administered study drug on Day 1 within 30 minutes of the start a standardized high-fat meal, and remained in the clinical unit until Day 2.
Fospropofol disodium was formulated as powder in 6 HPMC capsules, each capsule containing 200 mg of fospropofol disodium (weight adjusted for water content). Placebo was administered as 6 matching capsules.

[2] = Study No. 15-3 toxicokinetics of fospropofol and propofol in plasma; assay type: in vivo, Sprague-Dawley rats; settings: for AUC(0-t): Propofol AUC0-6 hr
Method: The purpose of Study No. 15-3 (GLP) was to determine the potential toxicity of fospropofol in Sprague-Dawley rats when administered once daily by oral gavage for 14 days. […] The cause of death for the three 250 mg/kg/day group main study females found dead could not be determined, but was considered related to the pharmacodynamic effects of fospropofol, based on the time of death relative to the time of close administration, and the clinical signs recorded before death. Clinical observations during the closing period for these animals included labored breathing, prostrate, splayed hindlimbs, uncoordinated movement, decreased activity, and eyes closed.

[3] = Study No. 15-4 toxicokinetics of fospropofol and propofol in plasma; assay type: in vivo, Beagle dogs; settings: for Propofol AUC0-6hr increase after 14 days compared with Day 1 / Propofol Cmax increase after 14 days compared with Day 1: 160-mg/kg
Method: The purpose of Study No. 15-4 (GLP) was to determine the potential toxicity of fospropofol in Beagle dogs when administered once daily by oral gavage for 14 days. […] Because the treatment-related clinical observations (consistent with the expected transient sedative actions of fospropofol) and effects on hematology and clinical chemistry parameters were considered nonadverse, the NOAEL was determined to be 160 mg/kg/day (3200 mg/m^2/day).

CC(C)c1cccc(C(C)C)c1O [propofol, 2,6-diisopropylphenol]
Propofol mean AUC following a high-fat meal relative to fasting ([1]; 1200 mg): approximately 40% | Propofol mean Cmax under fed conditions relative to fasting ([1]; 1200 mg): approximately 19% | Effect of high-fat meal on exposure ([1]; 1200 mg within 30 minutes after the start of a high-fat meal): significant reduction in exposure | Tmax ([1]; both sexes, human, plasma, oral, 1200 mg, after a high-fat meal): 120 min | Propofol CL/F ([1]; oral fospropofol disodium 1200 mg, Fed (Cohort 8), n = 7/12, mean): 3111 L/h | Increase of propofol Cmax and AUC0-6hr with fospropofol dose ([2]; Days 1 and 14): approximately close-proportional | Propofol AUC0-6hr following repeated administration ([2]; female rats): appeared to increase | Propofol AUC0-6hr following repeated administration ([2]; male rats): did not appear to change | AUC(0-t) ([2]; male, Sprague-Dawley, rat, plasma, po, 50 mg/kg, oral gavage fospropofol disodium, Male, 50 mg/kg, Day 1): 219 ng·h/mL | AUC(0-t) ([2]; male, Sprague-Dawley, rat, plasma, po, 50 mg/kg, oral gavage fospropofol disodium, Male, 50 mg/kg, Day 14): 416 ng·h/mL | Cmax ([2]; male, Sprague-Dawley, rat, plasma, po, 50 mg/kg, Propofol Cmax, oral gavage fospropofol disodium, Male, 50 mg/kg, Day 14): 301 ng/mL | Tmax ([2]; male, Sprague-Dawley, rat, plasma, po, 50 mg/kg, Propofol Tmax, oral gavage fospropofol disodium, Male, 50 mg/kg, Day 14): 15 min | Dependence of systemic exposure on sex ([2]; rats, 14 days oral gavage fospropofol disodium): greater exposure in females | Propofol AUC0-6hr increase after 14 days compared with Day 1 ([3]; females): over 5 fold | Propofol Cmax increase after 14 days compared with Day 1 ([3]; females): ~3 fold | Propofol AUC0-6hr increase after 14 days compared with Day 1 ([3]; males): over 2 fold | Propofol Cmax increase after 14 days compared with Day 1 ([3]; males): about 7 fold | Tmax ([3]; Beagle, dog, plasma, po, Propofol Tmax, most groups): 5 to 60 min | Increase of propofol Cmax and AUC0-6hr with dose ([3]; Day 1, both sexes): close proportional | Increase of propofol Cmax and AUC0-6hr with dose ([3]; Day 14, both sexes): more than close proportional | half-life ([3]; female, Beagle, dog, plasma, po, females): 30 to 78 min | half-life ([3]; male, Beagle, dog, plasma, po, males): 48 to 108 min
